According to patent publication US9302999B2, “Substituted triazoles as herbicides” (E. I. DU PONT DE NEMOURS AND COMPANY, priority 2012, dated 2016):

Tests used:
Format in all cases: in vivo
[1] = tested on: common (oilseed) sunflower (Helianthus annuus); assay: Test C pre-/postemergence: sunflower; conditions: Preemergence
Source text: Seeds of plant species selected from blackgrass (Alopecurus myosuroides), bromegrass, downy (downy bromegrass, Bromus tectorum), foxtail, green (green foxtail, Setaria viridis), ryegrass, Italian (Italian ryegrass, Lolium multiflorum), winter wheat (Triticum aestivum), wild oat (Avena fatua), galium (catchweed bedstraw, Galium aparine), bermudagrass (Cynodon dactylon), surinam grass (Brachiaria decumbens), cocklebur (common cocklebur, Xanthium strumarium), corn (Zea mays), large crabgrass (Digitaria sanguinalis), woolly cupgrass (Eriochloa villosa), foxtail, giant (giant foxtail, Setaria faberii), goosegrass (Eleusine indica), johnsongrass (Sorghum halepense), kochia (Kochia scoparia), lambsquarters (Chenopodium album), morningglory (Ipomoea coccinea), nightshade (eastern black nightshade, Solanum ptycanthum), nutsedge, yellow (yellow nutsedge, Cyperus esculentus), pigweed (Amaranthus retroflexus), ragweed (common ragweed, Ambrosia elation), soybean (Glycine max), common (oilseed) sunflower (Helianthus annuus), Russian thistle (Salsola kali) and velvetleaf (Abutilon theophrasti) were planted into a blend of loam soil and sand and treated preemergence with test chemicals formulated in a non-phytotoxic solvent mixture which included a surfactant.
At the same time, plants selected from these crop and weed species and also barley (winter barley, Hordeum vulgare), canarygrass (Phalaris minor), chickweed (common chickweed, Stellaria media) windgrass (Apera spica-venti) and deadnettle (henbit deadnettle, Lamium amplexicaule) were planted in pots containing Redi-Earth® planting medium (Scotts Company, 14111 Scottslawn Road, Marysville, Ohio 43041) comprising spaghnum peat moss, vermiculite, wetting agent and starter nutrients and treated with postemergence applications of test chemicals formulated in the same manner. Plants ranged in height from 2 to 18 cm (1- to 4-leaf stage) for postemergence treatments.
Treated plants and controls were maintained in a greenhouse for 13 to 15 days, after which time all species were compared to controls and visually evaluated. Plant response ratings, summarized in Table C, are based on a scale of 0 to 100 where 0 is no effect and 100 is complete control. A dash (-) response means no test result.

[2] = tested on: canarygrass (Phalaris minor); assay: Test D pre-/postemergence: canarygrass
Summary of the method: (§1)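 Visual 0–100 rating versus untreated controls (0 no effect, 100 complete control), taken 14 to 21 days after treatment in a controlled growth environment. Preemergence: silt loam soil. Postemergence: peat moss/vermiculite medium, plants 2 to 18 cm, 1- to 4-leaf stage. Solvent mixture with surfactant.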

[3] = tested on: chickweed (common chickweed, Stellaria media); assay: Test D pre-/postemergence: chickweed; conditions: Postemergence
Summary of the method: as §1

[4] = tested on: canarygrass (Phalaris minor); assay: Test C postemergence: canarygrass
Summary of the method: (§2)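 Pot-grown plants in peat/vermiculite medium sprayed postemergence at 2–18 cm height (1- to 4-leaf stage). Kept in greenhouse 13 to 15 days, then visually rated against untreated controls on a 0–100 scale (0 = no effect, 100 = complete control).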

[5] = tested on: oat, wild (wild oat, Avena fatua); assay: Test D pre-/postemergence: oat, wild
Summary of the method: as §1

[6] = tested on: buckwheat, wild (wild buckwheat, Polygonum convolvulus); assay: Test D pre-/postemergence: buckwheat, wild
Summary of the method: as §1

[7] = tested on: windgrass (Apera spica-venti); assay: Test D pre-/postemergence: windgrass
Summary of the method: as §1

[8] = tested on: windgrass (Apera spica-venti); assay: Test C postemergence: windgrass
Summary of the method: as §2

[9] = 125 g ai/ha, scale 0 to 100, 0 no effect, 100 complete control
[10] = Postemergence, 31 g ai/ha, scale 0 to 100 (0 no effect, 100 complete control)
[11] = Postemergence, 62 g ai/ha, scale 0 to 100 (0 no effect, 100 complete control)
[12] = Postemergence, 125 g ai/ha, scale 0 to 100, 0 no effect, 100 complete control
[13] = Postemergence, 250 g ai/ha, scale 0 to 100 (0 no effect, 100 complete control)
[14] = Postemergence, 16 g ai/ha, scale 0 to 100
[15] = Preemergence, 16 g ai/ha, scale 0 to 100 (0 no effect, 100 complete control)
[16] = Preemergence, 31 g ai/ha, scale 0 to 100 (0 no effect, 100 complete control)
[17] = Preemergence, 62 g ai/ha, scale 0 to 100
[18] = Preemergence, 125 g ai/ha, scale 0 to 100
[19] = Preemergence, 250 g ai/ha, scale 0 to 100
[20] = 31 g ai/ha, scale 0 to 100 (0 no effect, 100 complete control)
[21] = 62 g ai/ha, scale 0 to 100 (0 no effect, 100 complete control)
[22] = 250 g ai/ha, scale 0 to 100 (0 no effect, 100 complete control)

`CCOc1nn(-c2ccc(F)cc2)nc1Cc1ccnc(C(F)F)c1` [Compound 195] was tested, and the “Plant response rating, Sunflower” value ([1]; 31 g ai/ha, scale 0 (no effect) to 100 (complete control)) was 0, the “Plant response rating, Sunflower” value ([1]; 62 g ai/ha, scale of 0 to 100, 0 is no effect, 100 is complete control) was 15 and the “Plant response rating, Sunflower” value [1, 9] was 15. The “Plant response rating, Sunflower” value ([1]; 250 g ai/ha, scale 0 to 100, 0 no effect, 100 complete control) was 20, the “Plant response rating: Canarygrass” value [2, 10] was 10 and the “Plant response rating: Canarygrass” value [2, 11] was 20. For the same compound, the “Plant response rating: Canarygrass” value [2, 12] was 40, the “Plant response rating: Canarygrass” value [2, 13] was 55 and the “Plant response rating, Canarygrass” value [2, 14] was 10. For the same compound, the “Plant response rating, Canarygrass” value [2, 15] was 0, the “Plant response rating, Canarygrass” value [2, 16] was 25 and the “Plant response rating, Canarygrass” value [2, 17] was 40. For the same compound, the “Plant response rating, Canarygrass” value [2, 18] was 80, the “Plant response rating, Canarygrass” value [2, 19] was 95 and the “Plant response rating: Chickweed” value [3, 20] was 40. The “Plant response rating: Chickweed” value [3, 21] was 60, the “Plant response rating: Chickweed” value [3, 9] was 85 and the “Plant response rating: Chickweed” value [3, 22] was 90. For the same compound, the “Plant response rating, Chickweed” value ([3]; 16 g ai/ha, scale 0 to 100) was 30, the “Plant response rating, Canarygrass” value [4, 20] was 40 and the “Plant response rating, Canarygrass” value [4, 21] was 60. The “Plant response rating, Canarygrass” value [4, 9] was 85, the “Plant response rating, Canarygrass” value ([4]; 250 g ai/ha, scale 0 to 100) was 100 and the “Plant response rating: Oat, Wild” value [5, 10] was 20. The “Plant response rating: Oat, Wild” value [5, 11] was 25, the “Plant response rating: Oat, Wild” value [5, 12] was 35 and the “Plant response rating: Oat, Wild” value [5, 13] was 45. For the same compound, the “Plant response rating, Oat, Wild” value [5, 14] was 10, the “Plant response rating, Oat, Wild” value [5, 15] was 0 and the “Plant response rating, Oat, Wild” value [5, 16] was 0. For the same compound, the “Plant response rating, Oat, Wild” value [5, 17] was 0, the “Plant response rating, Oat, Wild” value [5, 18] was 75 and the “Plant response rating, Oat, Wild” value [5, 19] was 75. For the same compound, the “Plant response rating: Buckwheat, Wild” value [6, 10] was 20, the “Plant response rating: Buckwheat, Wild” value [6, 11] was 30 and the “Plant response rating: Buckwheat, Wild” value [6, 12] was 35. For the same compound, the “Plant response rating: Buckwheat, Wild” value [6, 13] was 65, the “Plant response rating, Buckwheat, Wild” value [6, 14] was 15 and the “Plant response rating, Buckwheat, Wild” value [6, 15] was 0. The “Plant response rating, Buckwheat, Wild” value [6, 16] was 0, the “Plant response rating, Buckwheat, Wild” value [6, 17] was 20 and the “Plant response rating, Buckwheat, Wild” value [6, 18] was 20. For the same compound, the “Plant response rating, Buckwheat, Wild” value [6, 19] was 40, the “Plant response rating: Windgrass” value [7, 11] was 30 and the “Plant response rating: Windgrass” value [7, 12] was 70. The “Plant response rating: Windgrass” value [7, 13] was 80, the “Plant response rating, Windgrass” value [7, 14] was 10 and the “Plant response rating, Windgrass” value ([7]; Postemergence, 31 g ai/ha, scale 0 to 100) was 15. The “Plant response rating, Windgrass” value [7, 15] was 25, the “Plant response rating, Windgrass” value [7, 16] was 40 and the “Plant response rating, Windgrass” value [7, 17] was 75. For the same compound, the “Plant response rating, Windgrass” value [7, 18] was 100, the “Plant response rating, Windgrass” value [7, 19] was 100 and the “Plant response rating, Windgrass” value [8, 20] was 55. The “Plant response rating, Windgrass” value [8, 21] was 80, the “Plant response rating, Windgrass” value [8, 9] was 95 and the “Plant response rating, Windgrass” value [8, 22] was 100.
